In patent publication US20070185013A1, “Use of chk1 inhibitors to control cell proliferation” (ICOS CORPORATION, priority 2003, published 2007):
Entries after “also recorded” stand apart in the source; their conditions may differ.

What was measured:
H460 tumor cells = assay: H460 non-small cell lung tumor xenograft model, tumor volume (Example 1); type: in vivo, mice; conditions: gemcitabine alone, 160 mg/kg q3d×3
Excerpt: A method of the invention provided an improved antiproliferative effect over co-administration in an art-recognized […] tumor model. In the experiment, gemcitabine was used as the Chk1 activator and a diaryl urea compound according to Keegan et al., PCT/US02/06452, was used as the selective Chk1 inhibitor. (The same Chk1 inhibitor was used in the examples 2-11.) The target phase of gemcitabine is the S phase of the cell cycle. A non-small cell lung tumor xenograft tumor model, H460, was the art-recognized […] tumor model.
Nude mice were engrafted with H460 tumor cells and allowed to grow to an average of 75 mm3. Tumor-bearing mice were then treated with vehicle, gemcitabine or gemcitabine plus 400 mg/kg selective Chk1 inhibitor. The gemcitabine was administered at a dose of 160 mg/kg q3d×3 either simultaneously with the Chk1 inhibitor (co-administration) or, according to the invention, 18 hours prior to the Chk1 inhibitor to allow for S phase synchronization.
Tumors were measured every 2-3 days. On day 10, the median tumor volume for the vehicle group was 10 times the starting volume, while the gemcitabine alone group was four times the starting volume. The tumor volume for the gemcitabine plus Chk1 inhibitor co-administration group was also four times the starting volume. […]

Chk1 [1] = assay: Chk1 serine 317 and 345 phosphorylation, Western blot in HT29 cells; type: cell-based, human; conditions: 20 μM gemcitabine for two hours, 22 additional hours
Excerpt: To determine whether an agent is a Chk1 activator, the phosphorylation state of Chk1 can be measured using phospho-specific antibodies to specific phosphorylation sites on Chk1. […] Liu, Q., et al., (2000) Genes Dev. 14, 1448-1459; Zhao, H., et al., (2001) Mol. Cell. Biol. 21, 4129-4139; Lopez-Girona, A., et al., (2001) Proc. Natl. Acad. Sci. U.S.A. 98, 11289-11294; Guo, Z., et al., (2000). Genes Dev. 14, 2745-2756; Gatei, M., et al., (2003) J. Biol. Chem. 278, 14806-14811; Ng C P, et al., J Biol Chem. 2004 Mar. 5; 279(10):8808-19; Wang Y, et al., Natl Acad Sci USA. 2003 Dec. 23; 100(26):15387-92; Stojic L, et al., Genes Dev. 2004 Jun. 1; 18(11):1331-44. These serine sites are phosphorylated by upstream checkpoint kinases, Atm and Atr. Liu, Q., et al., S. J. (2000) Genes Dev. 14, 1448-1459; Zhao, H., et al. (2001) Mol. Cell. Biol. 21, 4129-4139).
The phosphorylation of these sites in response to a candidate Chk1 activator can be monitored by Western blot or immunohistochemistry of tumor cells. […] HT29 cells were treated with 20 μM gemcitabine for two hours. The gemcitabine was washed out of the cell growth media and cells were incubated for 22 additional hours. Protein lysates were prepared and separated by an SDS-polyacrylamide gel electrophoresis. […]

Chk1 [2] = assay: Chk1 serine 296 phosphorylation, Western blot in HT29 cells; type: cell-based, human; conditions: HT29 cells, 20 μM gemcitabine for two hours, 22 additional hours
Protocol: Phosphorylation at this site is not inhibited by Wortinannin, which inhibits Atm and Atr. Therefore the phosphorylation of serine 296 is distinct from phosphorylation at serines 317 and 345 described in Example 12. […] Therefore, this approach may be used to monitor Chk1 activity in tumors in response to Chk1 activators. Further, this approach may be used to measure inhibition of Chk1 activation by Chk1 inhibitors.
Thus, HT 29 cells were treated with 20 μM gemcitabine for two hours. The gemcitabine was washed out of the cell growth media and cells were incubated for 22 additional hours. Protein lysates were prepared and separated by an SDS-polyacrylamide gel electrophoresis. Proteins were transferred to polyvinylidene fluoride (PVDF) membranes and probed with antisera (Cell Signalling) specific for phosphorlyated serine 296 (Cell Signalling). […] Further, HT29 cells treated with selective Chk1 inhibitors for 15 minutes show no serine 296 phosphorylation.

SMILES: Nc1ccn([C@@H]2O[C@H](CO)[C@@H](O)C2(F)F)c(=O)n1 [gemcitabine]
- median tumor volume on day 10 (H460 tumor cells): four
- phosphorylation of Chk1 serines 317 and 345 (Chk1 [1]): results in the phosphorylation of both serines 317 and 345
- phosphorylation of Chk1 serine 296 (Chk1 [2]): stimulated; also recorded: results in the phosphorylation of serine 296
